Patent publication US9260391B2, “Hypoglycemic dihydropyridones” (The Trustees of Columbia University in the City of New York, priority 2008, dated 2016)
Entries after “also recorded” stand apart in the source; their conditions may differ.

Experiments:
Type in all cases: in vivo, rat
Lewis rats [1] = assay: IPGTT of analogs HG-1 to HG-11, compounds given orally (FIG. 15); conditions: 2 mg/kg orally; for hypoglycemic activity in IPGTT compared with TBZ / HG-3: FIG. 15
Procedure: FIG. 15 is a bar graph showing the results of testing various analogs HG-1 to HG-11 in IPGTT glucose tolerance tests in rats. Results for TBZ, emetine, and olanzapine are also shown. Lewis rats fasted for 6 hours were administered the compounds orally (30 min, 2 mg/kg) followed by intraperitoneal glucose injection (0 min, […]), and plasma glucose levels were monitored for 120 mins. Results are presented as AUC percentage of the vehicle. Error bars indicate SEM (n=5).
Racemic HG-2 and its diastereoisomer HG-1 were evaluated for their ability to improve glucose tolerance by performing intraperitoneal glucose tolerance tests (IPGTT) in rats. IPGTT testing is described above. See also Murthy, R., et al., Eur. J. Nucl. Med. Mol. Imaging, 2008, 35(4), 790-797.

Lewis rats [2] = assay: Intraperitoneal glucose tolerance test (IPGTT), compounds given i.v.; conditions: for AUC Blood Glucose IPGTT: 2 mg/kg (2.0 μg/gbw) i.v.; for blood glucose levels around sixty minutes following glucose challenge: i.v. injection at 2 mg/kg body weight; for area under the curve from glucose tolerance tests: each series a separate experiment
Procedure: (§1) All animal studies were reviewed and approved by the Institutional Animal Care and Use Committee (IACUC) at Columbia University's Medical School. All experiments were performed in accordance with the IACUC approved procedures. Normal male Lewis rats (100-400 grams) were obtained from Taconic (Taconic Inc., Germantown, N.Y.) and were housed under conditions of controlled humidity (55±5%), temperature (23±1° C.), and lighting (light on: 06.00-18.00 hours) with free access to standard laboratory rat chow and water. Rats were handled daily to minimize nonspecific stress for more than 7 days before the experiments began. In most experiments, it was necessary to measure blood glucose in fasting animals. For these groups, food was removed at the beginning of the light cycle, 6 hours before glucose levels were measured. Diabetes mellitus was induced by intraperitoneal injection of streptozotocin (Sigma Chemical Co., St. Louis, Mo.) (25 to 50 mg/kg) to animals (100 to 150 grams) that had been fasted 4 hours to enhance the effectiveness of STZ treatment.
The STZ solution was prepared fresh by dissolving it in 0.1 M citrate buffer (pH 5.5) and terminally sterile filtered. Control Lewis age and weight matched rats received a 0.5 ml/kg citrate vehicle alone via intraperitoneal injection. Sixty minutes prior to intraperitoneal glucose tolerance testing (IPGTT), anesthesia of male Lewis rats was induced with isoflurane (3-4% in oxygen) and maintained with 1-2% isoflurane in oxygen. Anaesthetized rats were administered TBZ and other indicated compounds at the indicated dose by intravenous (i.v.) injection using the penile vein. TBZ was dissolved in neat sterile dimethylsulfoxide (DMSO) and diluted (always more than 10 fold) in sterile saline. Rats received injections of vehicle alone (10% DMSO in saline) or reserpine (in saline). Animals recovered fully before receiving IPGTT.
(§2) Blood samples were collected from a superficial blood vessel in the tails of the rats following 6 hours of fasting between 12:00 noon and 2:00 p.m. The fasting blood glucose (BG) levels of the rats were measured using an Accu-Check blood glucose monitoring system (Roche Diagnostics, Sommerville, N.J.). Intraperitoneal glucose tolerance tests (IPGTT) were performed in 6 hour fasting un-anaesthetized animals. Briefly, after baseline BG measurements, animals received an intraperitoneal (i.p.) injection of 1 gram glucose/kilogram body weight. To minimize stress during the procedure, rats were handled by the same operator during acclimatization and later during weighing and IPGTT. Blood samples (approximately 30 μl) were collected at baseline and then again 15, 30, 60, 90, and 120 minutes following i.p. glucose administration. BG concentrations were measured immediately on these samples and the remainder processed.
(§3) Plasma was immediately separated by centrifugation at 3000×g for 15 minutes and then stored at −20° C. until analysis. Insulin and glucagon concentration measurements in rat plasma were performed by ELISA as per the manufacturer's instructions using kits from Linco Research Inc. (St. Charles, Mo.) and Alpco Diagnostics (Salem, N.H.), respectively. To validate the test, saline injections were performed by the same method. […] The area under the IPGTT glucose concentration×time curve (AUCIPGTT) was calculated by the trapezoidal rule. The area under the insulin or glucagon concentration×time curve (AUC INS or AUC GCG) was calculated in a similar manner.
Anaesthetized rats were administered TBZ, THB, butamol, reserpine, emetine, or HG-6 at a dose of approximately 2-3 mg/kg body weight by intravenous (i.v.) injection using the penile vein. TBZ, THB, butamol, reserpine, emetine, and HG-6 were each separately dissolved in neat sterile dimethylsulfoxide (DMSO) and diluted (always more than 10 fold) in sterile saline. Rats received injections of vehicle alone (10% DMSO in saline) or reserpine (in saline). Animals recovered fully before receiving IPGTT. […]

diabetic Lewis rats = assay: IPGTT in streptozotocin-induced diabetic Lewis rats
Procedure: as §1, with “In most experiments, it was necessary to measure blood glucose in fasting animals.” left out, “Diabetes mellitus was induced by intraperitoneal injection of streptozotocin (Sigma Chemical Co., St. Louis, Mo.) (25 to 50 mg/kg) to animals (100 to 150 grams) that had been fasted 4 hours to enhance the effectiveness of STZ treatment.” left out
Blood samples were collected from a superficial blood vessel in the tails of the rats following 6 hours of fasting between 12:00 noon and 2:00 p.m. The fasting blood glucose (BG) levels of the rats were measured using an Accu-Check blood glucose monitoring system (Roche Diagnostics, Sommerville, N.J.). […] BG concentrations were measured immediately on these samples and the remainder processed.
Plasma was immediately separated by centrifugation at 3000×g for 15 minutes and then stored at −20° C. until analysis. […] The area under the IPGTT glucose concentration×time curve (AUCIPGTT) was calculated by the trapezoidal rule. […]

Lewis rats [3] = assay: Plasma insulin and glucagon during IPGTT (ELISA)
Procedure: as §2, §3

[4] = test system: dopamine content of brain and pancreas tissue; assay: Dopamine measurements in brain and pancreas extracts (ELISA)
Procedure: Anaesthetized rats received an intravenous injection of TBZ and were sacrificed one hour later. Euthanasia was performed by exsanguination of the anesthetized animal. Brain and pancreas were harvested as quickly as possible and frozen at −80° C. until use. Frozen tissue was pulverized in a liquid nitrogen cooled mortar and extracted in 0.01 N HCl. The tissue extract was centrifuged at 10,000×g at 4° C. to remove debris and the total protein was estimated by reading the absorbance at 280 nm. The concentration of dopamine in the extract was estimated using an ELISA kit from Rocky Mountain Diagnostics (Colorado Springs, Colo.) per the manufacturer's instructions and normalized to the extract protein concentration.

[5] = 2 mg/kg body weight i.v., Lewis rats 9-11 weeks old, vs vehicle (DMSO)
[6] = single dose 2-3 mg/kg body weight i.v., FIG. 12

`COc1cc2c(cc1OC)C1CC(OCC(C)C)=CC(=O)N1CC2` (stereo not shown) [HG-8] was tested, and the “hypoglycemic activity in IPGTT compared with TBZ / HG-3” value (Lewis rats [1]) was “active but less potent”.

For `COc1ccc([C@@H]2C[C@H](O)[C@@H](CC(C)C)CN2)cc1OC` [HG-1], the “hypoglycemic activity in IPGTT compared with TBZ / HG-3” value (Lewis rats [1]) was “less potent than TBZ”.

`COc1ccc(C2CC(O)C(CC(C)C)CN2)cc1OC` (stereo not shown) [HG-2] was tested, and the “hypoglycemic activity in IPGTT compared with TBZ / HG-3” value (Lewis rats [1]) was “less potent than TBZ”.

In the case of `COC1=CC(=O)OC(c2ccc(OC)c(OC)c2)C1` (stereo not shown) [HG-9], the “hypoglycemic activity in IPGTT compared with TBZ / HG-3” value (Lewis rats [1]) is reported as “loss of the improved activity”.

`COc1ccc(C2CC(OCC(C)C)=CC(=O)O2)cc1OC` (stereo not shown) [HG-7] was tested, and the “hypoglycemic activity in IPGTT compared with TBZ / HG-3” value (Lewis rats [1]) was “loss of the improved activity”.

For `COc1cc2c(cc1OC)[C@@H]1CC(=O)[C@@H](CC(C)C)CN1CC2` [TBZ, tetrabenazine], the “AUC Blood Glucose IPGTT” value (Lewis rats [2]) was “smaller area under the curve; also recorded: lower than that for vehicle and butamol treated animals”, the “blood glucose excursion during IPGTT” value (Lewis rats [2]; [5]) was “reduced the blood glucose excursion” and the “blood glucose excursion during IPGTT” value (Lewis rats [2]; 2 mg/kg body weight i.v., Lewis rats 9-11 weeks old, vs vehicle (DMSO), listed as Tetrabenazine) was “reduced the blood glucose excursion”. For the same molecule, the “blood glucose excursion during IPGTT” value (Lewis rats [2]; Lewis rats 9-11 week old, TBZ 1.6 μg/gm body weight i.v., vs vehicle) was “reduces the blood glucose excursion”, the “blood glucose excursion during IPGTT” value (Lewis rats [2]; Lewis rats 9-11 week old, TBZ 1.6 μg/gm body weight i.v., vs vehicle, listed as tetrabenazine) was “significant change in the size and shape of the glucose disposition curve” and the “reduction of the glucose excursion (areas under the curve during IPGTT)” value (Lewis rats [2]; TBZ 1.6 μg/gbw) was 40-50%. For the same molecule, the “AUC IPGTT of controls compared with TBZ treated animals” value (Lewis rats [2]; TBZ 1.6 μg/gm, series of experiments n=4, p<0.05) was “significantly higher”, the “baseline fasting glucose concentration” value (Lewis rats [2]; after TBZ administration, before glucose challenge, data not shown) was “no reproducible differences were observed” and the “blood glucose levels around sixty minutes following glucose challenge” value (Lewis rats [2]) was “returned to control or near normal levels”. For the same molecule, the “blood glucose excursion during IPGTT” value (Lewis rats [2]; [6]) was “consistently reduced the blood glucose excursion”, the “area under the curve from glucose tolerance tests” value (Lewis rats [2]; [6]) was “consistently suppressed the area under the curve; also recorded: depress the area under the curve” and the “dose dependence of AUC IPGTT” value (Lewis rats [2]; varying doses of TBZ, normalized to each animal's untreated baseline IPGTT) was “complex dose response effect; also recorded: reduces the blood glucose excursion in a dose dependent manner”. The “decrease of the AUC IPGTT (area under the blood glucose concentration-time curve)” value (Lewis rats [1]; 30 min before i.p. glucose, relative to vehicle, n=5) was 26%, the “blood glucose excursion / area under the curve in IPGTT, diabetic rats” value (diabetic Lewis rats; STZ-diabetic Lewis rats 5-8 weeks, TBZ 1.6 μg/gm i.v.) was “smaller area under the curve; also recorded: reduces the blood glucose excursion during IPGTT in diabetic Lewis rats” and the “blood glucose levels before i.p. glucose challenge, diabetic rats” value (diabetic Lewis rats; around sixty minutes following i.v. injection of TBZ) was “returned to control or near normal levels”. For the same molecule, the “glucose-stimulated insulin and glucagon secretion in vivo” value (Lewis rats [3]; TBZ 1.6 μg/gm, Lewis rats 9-11 week old, during IPGTT) was “alters glucose-stimulated insulin and glucagon secretion in vivo”, the “plasma insulin levels relative to vehicle treated controls” value (Lewis rats [3]; following TBZ and glucose challenge) was “greater” and the “plasma glucagon levels relative to controls” value (Lewis rats [3]; following i.v. TBZ administration and glucose challenge) was “generally lower”. The “AUC INS with TBZ treatment relative to AUC INS of control animals” value (Lewis rats [3]; four out of five experiments) was “greater than two fold”, the “baseline plasma concentrations of glucagon” value (Lewis rats [3]; prior to glucose challenge) was “sometimes lower than controls, although these differences did not reach statistical significance” and the “AUC GCG, less than AUC GCG of control animals” value (Lewis rats [3]; three of five experiments) was 75%-85%. For the same molecule, the “dopamine content of brain and pancreas tissue” value ([4]; TBZ 1.6 μg/gm body weight i.v., one hour later, normalized to total protein) was “reduces the dopamine content of brain and pancreas tissue” and the “dopamine content of pancreas and brain” value ([4]; one hour after injection of 10 μg/gm body weight of tetrabenazine) was “significantly depleted the dopamine content of pancreas and brain”.

With `COc1ccc(C2CC(=O)CC(=O)N2)cc1OC` (stereo not shown) [HG-5] the “hypoglycemic activity in IPGTT compared with TBZ / HG-3” value (Lewis rats [1]) was “loss of the improved activity”.

For `CC[C@H]1CN2CCc3cc(OC)c(OC)cc3[C@@H]2C[C@@H]1C[C@H]1NCCc2cc(OC)c(OC)cc21` [emetine], the “AUC Blood Glucose IPGTT” value (Lewis rats [2]) was “smaller area under the curve; also recorded: lower than that for vehicle and butamol treated animals”, the “blood glucose excursion during IPGTT” value (Lewis rats [2]; [5]) was “reduce the blood glucose excursion” and the “blood glucose levels around sixty minutes following glucose challenge” value (Lewis rats [2]) was “returned to control or near normal levels”. For the same molecule, the “blood glucose excursion during IPGTT” value (Lewis rats [2]; [6]) was “consistently reduced the blood glucose excursion”, the “area under the curve from glucose tolerance tests” value (Lewis rats [2]; [6]) was “consistently suppressed the area under the curve” and the “area under the curve from glucose tolerance tests” value (Lewis rats [2]; single dose 2-3 mg/kg body weight i.v., FIG. 12, listed as emitine) was “depress the area under the curve”.

In the case of `COc1cc2c(cc1OC)C1CC(N)C(CC(C)C)CN1CC2` (stereo not shown) [HG-6, 3-isobutyl-9,10-dimethoxy-2,3,4,6,7,11b-hexahydro-1H-pyrido[2,1-a]isoquinolin-2-amine], the “blood glucose excursion during IPGTT” value (Lewis rats [2]; [6]) is reported as “consistently reduced the blood glucose excursion” and the “area under the curve from glucose tolerance tests” value (Lewis rats [2]; [6]) is reported as “consistently suppressed the area under the curve; also recorded: depress the area under the curve”.

In the case of `COc1ccc2c(c1OC)CN1CCc3cc4c(cc3C1C2)OCO4` (stereo not shown) [THB, tetrahydroberberine], the “AUC Blood Glucose IPGTT” value (Lewis rats [2]) is reported as “smaller area under the curve; also recorded: lower than that for vehicle and butamol treated animals”, the “blood glucose excursion during IPGTT” value (Lewis rats [2]; [5]) is reported as “reduce the blood glucose excursion” and the “blood glucose levels around sixty minutes following glucose challenge” value (Lewis rats [2]) is reported as “returned to control or near normal levels”.

`COC(=O)[C@H]1[C@H]2C[C@@H]3c4[nH]c5cc(OC)ccc5c4CCN3C[C@H]2C[C@@H](OC(=O)c2cc(OC)c(OC)c(OC)c2)[C@@H]1OC` [reserpine] was tested, and the “AUC Blood Glucose IPGTT” value (Lewis rats [2]) was “smaller area under the curve”, the “blood glucose excursion during IPGTT” value (Lewis rats [2]; [5]) was “reduce the blood glucose excursion” and the “blood glucose levels around sixty minutes following glucose challenge” value (Lewis rats [2]) was “returned to control or near normal levels”. The “blood glucose and AUC IPGTT relative to untreated controls” value (Lewis rats [2]; reserpine single concentration 25 μg/gbm, data not shown) was “persistent hyperglycemia and larger AUC IPGTT”.

With `COC1=CC(=O)N2CCc3cc(OC)c(OC)cc3C2C1` (stereo not shown) [HG-10] the “hypoglycemic activity in IPGTT compared with TBZ / HG-3” value (Lewis rats [1]) was “active but less potent”.

For `CC(C)(C)NCC(O)c1ccc(O)c(CO)c1` (stereo not shown) [butamol], the “AUC Blood Glucose IPGTT” value (Lewis rats [2]) was “smaller area under the curve”, the “blood glucose excursion during IPGTT” value (Lewis rats [2]; [5]) was “did not reduce the blood glucose excursion; also recorded: does not reduce the blood glucose excursion” and the “blood glucose levels around sixty minutes following glucose challenge” value (Lewis rats [2]) was “returned to control or near normal levels”.

With `COc1ccc(-c2cc(OCC(C)C)cc(=O)[nH]2)cc1OC` [compound 17] the “hypoglycemic activity in IPGTT compared with TBZ / HG-3” value (Lewis rats [1]) was “loss of the improved activity”.
